Data reported in ChEMBL document CHEMBL6127058, “Overview of the PRMT6 modulators in cancer treatment: Current progress and emerged opportunity” (Eur J Med Chem, 2024).
Each block holds one compound with its values, some of them ahead of it.

Key:
[1] = molecular target: T1, Protein arginine N-methyltransferase 1 (Homo sapiens, UniProt Q99873); assay: Inhibition of PRMT1 (unknown origin) by TR-FRET analysis
[2] = molecular target: T2, Histone-arginine methyltransferase CARM1 (Homo sapiens, UniProt Q86X55); assay: Inhibition PRMT4 (unknown origin)
T2 sequence (Q86X55 whole entry): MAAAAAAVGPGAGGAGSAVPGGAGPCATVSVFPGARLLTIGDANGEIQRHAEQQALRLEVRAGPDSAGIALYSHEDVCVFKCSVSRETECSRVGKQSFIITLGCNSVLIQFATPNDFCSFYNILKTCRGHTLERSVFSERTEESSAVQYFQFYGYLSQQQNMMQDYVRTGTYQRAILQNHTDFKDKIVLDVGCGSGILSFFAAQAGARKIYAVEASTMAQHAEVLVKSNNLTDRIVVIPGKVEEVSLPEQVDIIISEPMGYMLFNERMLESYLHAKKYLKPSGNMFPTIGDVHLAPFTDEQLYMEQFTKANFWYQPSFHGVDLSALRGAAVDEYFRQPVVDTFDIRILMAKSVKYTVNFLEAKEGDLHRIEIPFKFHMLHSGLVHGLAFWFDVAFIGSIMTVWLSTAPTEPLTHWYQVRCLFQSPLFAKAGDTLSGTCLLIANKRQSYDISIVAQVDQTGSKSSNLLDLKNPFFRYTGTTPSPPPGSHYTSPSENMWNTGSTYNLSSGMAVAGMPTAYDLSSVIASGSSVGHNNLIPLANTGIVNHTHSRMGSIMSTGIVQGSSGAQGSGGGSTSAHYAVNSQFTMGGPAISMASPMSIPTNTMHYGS

[3] = molecular target: T1, Protein arginine N-methyltransferase 1; assay: Inhibition of PRMT1 (unknown origin)
[4] = molecular target: Protein arginine N-methyltransferase 8 (Homo sapiens, UniProt Q9NR22); assay: Inhibition of PRMT8 (unknown origin)
Sequence of Protein arginine N-methyltransferase 8 (Q9NR22 whole entry): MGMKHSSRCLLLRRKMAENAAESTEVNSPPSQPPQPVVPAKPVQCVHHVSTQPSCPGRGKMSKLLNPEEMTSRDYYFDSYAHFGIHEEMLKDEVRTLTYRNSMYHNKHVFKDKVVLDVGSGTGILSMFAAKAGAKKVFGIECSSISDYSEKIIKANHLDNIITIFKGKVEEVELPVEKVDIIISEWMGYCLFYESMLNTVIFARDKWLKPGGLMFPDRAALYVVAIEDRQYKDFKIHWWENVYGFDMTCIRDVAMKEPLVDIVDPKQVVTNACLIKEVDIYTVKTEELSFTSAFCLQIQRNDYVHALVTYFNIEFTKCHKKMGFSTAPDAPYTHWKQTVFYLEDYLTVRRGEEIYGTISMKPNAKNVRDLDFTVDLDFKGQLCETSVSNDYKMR

[5] = molecular target: Protein arginine N-methyltransferase 6 (Homo sapiens, UniProt Q96LA8); assay: Inhibition of PRMT6 (unknown origin)
Sequence of Protein arginine N-methyltransferase 6 (Q96LA8 whole entry): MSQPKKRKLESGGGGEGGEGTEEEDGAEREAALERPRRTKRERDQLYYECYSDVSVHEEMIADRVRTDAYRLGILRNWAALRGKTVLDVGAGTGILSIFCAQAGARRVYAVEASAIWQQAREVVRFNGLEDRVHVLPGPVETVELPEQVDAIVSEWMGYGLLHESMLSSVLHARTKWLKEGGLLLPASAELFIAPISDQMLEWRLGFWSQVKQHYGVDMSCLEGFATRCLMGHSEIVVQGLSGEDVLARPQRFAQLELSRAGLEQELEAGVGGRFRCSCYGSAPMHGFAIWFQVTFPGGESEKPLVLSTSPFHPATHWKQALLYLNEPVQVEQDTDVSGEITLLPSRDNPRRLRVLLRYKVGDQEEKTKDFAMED

T1 sequence (Q99873 whole entry): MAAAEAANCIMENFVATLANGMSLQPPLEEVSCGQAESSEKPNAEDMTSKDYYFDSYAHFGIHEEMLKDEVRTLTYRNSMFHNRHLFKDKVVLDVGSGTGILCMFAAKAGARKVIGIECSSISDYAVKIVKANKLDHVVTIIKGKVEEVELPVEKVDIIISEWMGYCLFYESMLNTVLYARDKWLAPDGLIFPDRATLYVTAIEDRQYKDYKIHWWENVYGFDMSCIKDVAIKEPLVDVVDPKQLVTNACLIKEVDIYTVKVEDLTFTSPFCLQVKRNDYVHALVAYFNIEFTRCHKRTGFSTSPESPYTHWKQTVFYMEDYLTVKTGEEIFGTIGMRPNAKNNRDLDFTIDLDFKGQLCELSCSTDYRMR

IC50 [1]: 0.0053 µM
Compound: CNCCN(C)Cc1ccccc1Sc1ccccc1Cl

IC50 [2]: > 10 µM
IC50 [3]: > 10 µM
IC50 [4]: > 10 µM
Compound: Cc1cc(C)cc([C@@H]2c3cc(C)ccc3NC(=O)CN2C(=O)c2ccc(Br)s2)c1

IC50 [5]: 22.3 µM
Compound: C=CC(C)(C)c1cc(/C=C/C(=O)c2ccc(O)cc2)c(OC)cc1O [LICOAGROCHACONE A]
